Columns and labels:
Assay type in all cases: functional
Conditions in all cases: read-out: GI
CCRF-CEM = assay: Growth inhibition of human CCRF-CEM cells at 10 uM incubated for 48 hrs by sulforhodamine B assay relative to control
HL-60(TB) = assay: Growth inhibition of human HL-60(TB) cells at 10 uM incubated for 48 hrs by sulforhodamine B assay relative to control
MOLT-4 = assay: Growth inhibition of human MOLT-4 cells at 10 uM incubated for 48 hrs by sulforhodamine B assay relative to control
RPMI-8226 = assay: Growth inhibition of human RPMI-8226 cells at 10 uM incubated for 48 hrs by sulforhodamine B assay relative to control
SR = assay: Growth inhibition of human SR cells at 10 uM incubated for 48 hrs by sulforhodamine B assay relative to control
A549 = assay: Growth inhibition of human A549/ATCC cells at 10 uM incubated for 48 hrs by sulforhodamine B assay relative to control
HOP-62 = assay: Growth inhibition of human HOP-62 cells at 10 uM incubated for 48 hrs by sulforhodamine B assay relative to control
HOP-92 = assay: Growth inhibition of human HOP-92 cells at 10 uM incubated for 48 hrs by sulforhodamine B assay relative to control
NCI-H226 = assay: Growth inhibition of human NCI-H226 cells at 10 uM incubated for 48 hrs by sulforhodamine B assay relative to control
COLO 205 = assay: Growth inhibition of human COLO 205 cells at 10 uM incubated for 48 hrs by sulforhodamine B assay relative to control
HCC 2998 = assay: Growth inhibition of human HCC 2998 cells at 10 uM incubated for 48 hrs by sulforhodamine B assay relative to control
HCT-116 = assay: Growth inhibition of human HCT-116 cells at 10 uM incubated for 48 hrs by sulforhodamine B assay relative to control
HCT-15 = assay: Growth inhibition of human HCT-15 cells at 10 uM incubated for 48 hrs by sulforhodamine B assay relative to control
HT-29 = assay: Growth inhibition of human HT-29 cells at 10 uM incubated for 48 hrs by sulforhodamine B assay relative to control
SF-268 = assay: Growth inhibition of human SF-268 cells at 10 uM incubated for 48 hrs by sulforhodamine B assay relative to control
SF-295 = assay: Growth inhibition of human SF-295 cells at 10 uM incubated for 48 hrs by sulforhodamine B assay relative to control
SNB-19 = assay: Growth inhibition of human SNB-19 cells at 10 uM incubated for 48 hrs by sulforhodamine B assay relative to control
SNB-75 = assay: Growth inhibition of human SNB-75 cells at 10 uM incubated for 48 hrs by sulforhodamine B assay relative to control
U-251 = assay: Growth inhibition of human U-251 cells at 10 uM incubated for 48 hrs by sulforhodamine B assay relative to control
LOX IMVI = assay: Growth inhibition of human LOX IMVI cells at 10 uM incubated for 48 hrs by sulforhodamine B assay relative to control
Malme-3M = assay: Growth inhibition of human Malme-3M cells at 10 uM incubated for 48 hrs by sulforhodamine B assay relative to control
M14 = assay: Growth inhibition of human M14 cells at 10 uM incubated for 48 hrs by sulforhodamine B assay relative to control
SK-MEL-28 = assay: Growth inhibition of human SK-MEL-28 cells at 10 uM incubated for 48 hrs by sulforhodamine B assay relative to control
SK-MEL-5 = assay: Growth inhibition of human SK-MEL-5 cells at 10 uM incubated for 48 hrs by sulforhodamine B assay relative to control
UACC-257 = assay: Growth inhibition of human UACC-257 cells at 10 uM incubated for 48 hrs by sulforhodamine B assay relative to control
UACC-62 = assay: Growth inhibition of human UACC-62 cells at 10 uM incubated for 48 hrs by sulforhodamine B assay relative to control
IGROV-1 = assay: Growth inhibition of human IGROV-1 cells at 10 uM incubated for 48 hrs by sulforhodamine B assay relative to control
OVCAR-3 = assay: Growth inhibition of human OVCAR-3 cells at 10 uM incubated for 48 hrs by sulforhodamine B assay relative to control
OVCAR-4 = assay: Growth inhibition of human OVCAR-4 cells at 10 uM incubated for 48 hrs by sulforhodamine B assay relative to control
OVCAR-5 = assay: Growth inhibition of human OVCAR-5 cells at 10 uM incubated for 48 hrs by sulforhodamine B assay relative to control
NCI/ADR-RES = assay: Growth inhibition of human NCI/ADR-RES cells at 10 uM incubated for 48 hrs by sulforhodamine B assay relative to control
SK-OV-3 = assay: Growth inhibition of human SK-OV-3 cells at 10 uM incubated for 48 hrs by sulforhodamine B assay relative to control
786-0 = assay: Growth inhibition of human 786-0 cells at 10 uM incubated for 48 hrs by sulforhodamine B assay relative to control
ACHN = assay: Growth inhibition of human ACHN cells at 10 uM incubated for 48 hrs by sulforhodamine B assay relative to control
CAKI-1 = assay: Growth inhibition of human CAKI-1 cells at 10 uM incubated for 48 hrs by sulforhodamine B assay relative to control
RXF 393 = assay: Growth inhibition of human RXF 393 cells at 10 uM incubated for 48 hrs by sulforhodamine B assay relative to control
TK-10 = assay: Growth inhibition of human TK-10 cells at 10 uM incubated for 48 hrs by sulforhodamine B assay relative to control
PC-3 = assay: Growth inhibition of human PC-3 cells at 10 uM incubated for 48 hrs by sulforhodamine B assay relative to control
DU-145 = assay: Growth inhibition of human DU-145 cells at 10 uM incubated for 48 hrs by sulforhodamine B assay relative to control
MCF7 = assay: Growth inhibition of human MCF7 cells at 10 uM incubated for 48 hrs by sulforhodamine B assay relative to control
Hs-578T = assay: Growth inhibition of human Hs-578T cells at 10 uM incubated for 48 hrs by sulforhodamine B assay relative to control
BT-549 = assay: Growth inhibition of human BT-549 cells at 10 uM incubated for 48 hrs by sulforhodamine B assay relative to control
T47D = assay: Growth inhibition of human T47D cells at 10 uM incubated for 48 hrs by sulforhodamine B assay relative to control
MDA-MB-468 = assay: Growth inhibition of human MDA-MB-468 cells at 10 uM incubated for 48 hrs by sulforhodamine B assay relative to control

O=C(CNc1ccccc1)Nc1ccc(-c2nc3ccccc3s2)cc1
inhibition of growth at 10 µM (CCRF-CEM): 74.3%
inhibition of growth at 10 µM (HL-60(TB)): 11%
inhibition of growth at 10 µM (MOLT-4): 84.5%
inhibition of growth at 10 µM (RPMI-8226): 12.5%
inhibition of growth at 10 µM (SR): 74.5%
inhibition of growth at 10 µM (A549): 9.72%
inhibition of growth at 10 µM (HOP-62): -12%
inhibition of growth at 10 µM (HOP-92): 3.37%
inhibition of growth at 10 µM (NCI-H226): 5.83%
inhibition of growth at 10 µM (COLO 205): -11.2%
inhibition of growth at 10 µM (HCC 2998): -16%
inhibition of growth at 10 µM (HCT-116): 29.7%
inhibition of growth at 10 µM (HCT-15): 29.6%
inhibition of growth at 10 µM (HT-29): 2%
inhibition of growth at 10 µM (SF-268): 12.1%
inhibition of growth at 10 µM (SF-295): 7.06%
inhibition of growth at 10 µM (SNB-19): 8.22%
inhibition of growth at 10 µM (SNB-75): 17.4%
inhibition of growth at 10 µM (U-251): 14.8%
inhibition of growth at 10 µM (LOX IMVI): 55.4%
inhibition of growth at 10 µM (Malme-3M): 4.9%
inhibition of growth at 10 µM (M14): 12.9%
inhibition of growth at 10 µM (SK-MEL-28): 3.37%
inhibition of growth at 10 µM (SK-MEL-5): 22%
inhibition of growth at 10 µM (UACC-257): -1.98%
inhibition of growth at 10 µM (UACC-62): 23.5%
inhibition of growth at 10 µM (IGROV-1): 16.1%
inhibition of growth at 10 µM (OVCAR-3): 5.15%
inhibition of growth at 10 µM (OVCAR-4): 15.3%
inhibition of growth at 10 µM (OVCAR-5): -10.9%
inhibition of growth at 10 µM (NCI/ADR-RES): 1.75%
inhibition of growth at 10 µM (SK-OV-3): -24.1%
inhibition of growth at 10 µM (786-0): 15.4%
inhibition of growth at 10 µM (ACHN): -2.46%
inhibition of growth at 10 µM (CAKI-1): 1.16%
inhibition of growth at 10 µM (RXF 393): 5.43%
inhibition of growth at 10 µM (TK-10): -17.9%
inhibition of growth at 10 µM (PC-3): 10.1%
inhibition of growth at 10 µM (DU-145): 3.91%
inhibition of growth at 10 µM (MCF7): 53.2%
inhibition of growth at 10 µM (Hs-578T): -8.46%
inhibition of growth at 10 µM (BT-549): 43.5%
inhibition of growth at 10 µM (T47D): 21.4%
inhibition of growth at 10 µM (MDA-MB-468): 29.5%

O=C(CNc1ccc(Cl)cc1)Nc1ccc(-c2nc3ccccc3s2)cc1
inhibition of growth at 10 µM (CCRF-CEM): 96.8%
inhibition of growth at 10 µM (HL-60(TB)): 29%
inhibition of growth at 10 µM (MOLT-4): 95.6%
inhibition of growth at 10 µM (RPMI-8226): 54%
inhibition of growth at 10 µM (SR): 88.5%
inhibition of growth at 10 µM (A549): 11%
inhibition of growth at 10 µM (HOP-62): -16.2%
inhibition of growth at 10 µM (HOP-92): 2.16%
inhibition of growth at 10 µM (NCI-H226): 41.9%
inhibition of growth at 10 µM (COLO 205): 53%
inhibition of growth at 10 µM (HCC 2998): 116%
inhibition of growth at 10 µM (HCT-116): 76.7%
inhibition of growth at 10 µM (HCT-15): 114%
inhibition of growth at 10 µM (HT-29): 52.1%
inhibition of growth at 10 µM (SF-268): 75.9%
inhibition of growth at 10 µM (SF-295): 5.37%
inhibition of growth at 10 µM (SNB-19): 36.4%
inhibition of growth at 10 µM (SNB-75): 39.9%
inhibition of growth at 10 µM (U-251): 73.7%
inhibition of growth at 10 µM (LOX IMVI): 141%
inhibition of growth at 10 µM (Malme-3M): 130%
inhibition of growth at 10 µM (M14): 55.8%
inhibition of growth at 10 µM (SK-MEL-28): 0.54%
inhibition of growth at 10 µM (SK-MEL-5): 75%
inhibition of growth at 10 µM (UACC-257): 9.09%
inhibition of growth at 10 µM (UACC-62): 69.9%
inhibition of growth at 10 µM (IGROV-1): 65.7%
inhibition of growth at 10 µM (OVCAR-3): 71.1%
inhibition of growth at 10 µM (OVCAR-4): 76.9%
inhibition of growth at 10 µM (OVCAR-5): -21.1%
inhibition of growth at 10 µM (NCI/ADR-RES): 35.5%
inhibition of growth at 10 µM (SK-OV-3): 10.2%
inhibition of growth at 10 µM (786-0): 73%
inhibition of growth at 10 µM (ACHN): 77.2%
inhibition of growth at 10 µM (CAKI-1): 79.8%
inhibition of growth at 10 µM (RXF 393): 15.8%
inhibition of growth at 10 µM (TK-10): -18.4%
inhibition of growth at 10 µM (PC-3): 14.7%
inhibition of growth at 10 µM (DU-145): 29.8%
inhibition of growth at 10 µM (MCF7): 88.5%
inhibition of growth at 10 µM (Hs-578T): 15.9%
inhibition of growth at 10 µM (BT-549): 83.3%
inhibition of growth at 10 µM (T47D): 95.4%
inhibition of growth at 10 µM (MDA-MB-468): 111%

Source: ChEMBL document CHEMBL4765227, “Hit to lead optimization of a series of N-[4-(1,3-benzothiazol-2-yl)phenyl]acetamides as monoacylglycerol lipase inhibitors with potential anticancer activity” (Eur J Med Chem, 2016)
